# Experimental data from patent publication US20260335298A1, “PHARMACEUTICAL COMBINATION CONTAINING DONEPEZIL AND RIVASTIGMINE FOR PREVENTING, ALLEVIATING OR TREATING DEMENTIA OR COGNITIVE IMPAIRMENT, AND PREPARATION METHOD THEREFOR” (G2GBIO, INC., priority 2022, published 2026).
# Assays:
# AChE = details: patients taking donepezil in a long-term; cited from earlier work
# AChE mRNA (APP-H4 cells) = test: AChE mRNA expression in APP-H4 cell line (qRT-PCR, FIGS. 5 and 6); assay type: cell-based, human; details: 24 h
# Description: An APP-H4 cell line is known as a dementia model cell line in which an abnormal segment of Amyloid Precursor Protein (APP) is increased by β-secretase and Alzheimer's disease and hyperphosphorylation of a Tau protein are induced by introducing a Swedish mutation of APP into human neuroglioblastoma H4 cells. In order to re-verify the effect of combined administration of the donepezil and the rivastigmine on the AChE mRNA expression and the drug combination ratio confirmed through a previous study, APP-H4 cells were treated with the donepezil and the rivastigmine alone or in combination as active ingredients, and the AChE gene expression was analyzed.
# Specifically, the APP-H4 cell line was cultured in DMEM including 10% fetal bovine serum and gentamycine. Gene expression comparative analysis was performed by treating cells with donepezil 50 (19 μg/ml) μM alone or with donepezil 50 μM and rivastigmine 1 or 5 (1.25 μg/ml) μM as a final concentration in combination and performing qRT-PCR as in the previous experiment method (primers are shown in Table 4 below).
# APP-H4 cells were treated with the donepezil and the rivastigmine alone or in combination and cultured for 24 hours, and then the AChE mRNA expression level was measured by qRT-PCR method.
# [1] = system: AChE mRNA (SH-SY5Y cells); test: AChE mRNA expression in SH-SY5Y cell line (qRT-PCR, FIGS. 2 to 4); assay type: cell-based, human
# Experimental: Specifically, the SH-SY5Y cell line was cultured in a 6-well plate (6×10^5/well) using high-glucose Dulbecco's modified Eagle medium (DMEM) added with 10% fetal bovine serum and penicillin-streptomycin. SH-SY5Y cells were treated with the donepezil at final concentrations of 10, 20, 30, 40 (15.2 μg/ml) μM, or the rivastigmine at 0.01, 0.1, 0.5, 1, 5 (1.25 μg/ml) μM and cultured for 24 hours, and then, a total RNA was extracted from each cell using TRIzol, and cDNA was synthesized using a SuperScriptIII cDNA synthesis kit. Quantitative real-time PCR (qRT-PCR) was performed using the synthesized cDNA and primers and SYBR Green in Table 3 below using QuantStudio 3. In order to confirm amplification and accumulation of a target gene in real time, the qRT-PCR was performed under a condition that a cycle of 95° C. for 15 seconds and 60° C. for 1 minute was reacted 40 times after an initial denaturation reaction was performed at 50° C. for 2 minutes and 95° C. for 10 minutes.
# A gene expression level amplified by the Comparative Ct Method which is one of methods for quantifying a specific gene expression level was calculated, and analysis results are shown in FIGS. 2 to 4.
# [Relational Expression of AChE mRNA Expression Level Analysis for Each Sample]
# ΔCt value=Ct value of AChE in each sample−Ct value of reference gene (GAPDH) in the sample.
# (Here, Ct refers to a cycle number in which amplification begins to increase clearly during a PCR process.)
# Specifically, the SH-SY5Y cell line was cultured in a 6-well plate (6×10^5/well) using DMEM added with 10% fetal bovine serum and penicillin-streptomycin. Gene expression comparative analysis was performed by treating the SH-SY5Y cells with donepezil alone or with donepezil and rivastigmine in combination and performing qRT-PCR as in the previous experiment method.
# Specifically, the gene expression comparative analysis was performed by treating the SH-SY5Y cells with donepezil 20 μM alone and with donepezil 20 μM and rivastigmine 0.1, 0.5, 1, and 5 μM as a final concentration in combination and performing qRT-PCR as in the previous experiment method.
Structure (SMILES),AChE activity and quantity (AChE),"AChE expression (AChE mRNA (APP-H4 cells); 50 μM donepezil, FIG. 6)","AChE mRNA expression ([1]; 5 μM (1.9 μg/ml) donepezil alone, FIG. 3)","AChE mRNA expression ([1]; donepezil alone, beyond 20 μM (30, 40 μM), 24 h, FIG. 2)","AChE mRNA expression ([1]; donepezil alone, up to 20 μM, 24 h, FIG. 2)","AChE mRNA expression (AChE mRNA (APP-H4 cells); rivastigmine alone, 0.5, 1, or 10 μM, FIG. 5)","AChE mRNA expression ([1]; rivastigmine alone, 0.01 to 5 μM, 24 h, FIG. 2)"
COc1cc2c(cc1OC)C(=O)C(CC1CCN(Cc3ccccc3)CC1)C2 (stereo not shown) [donepezil],increases,increased,increased,no difference,dependently increased,,
CCN(C)C(=O)Oc1cccc([C@H](C)N(C)C)c1 [rivastigmine],,,,,,no effect,no statistically significant change was observed
